Experimental data reported in US10610535B2 (The Regents of the University of California, priority 2005, dated 2020).

Tests used:
ERβ as compared to ERα = ERβ as compared to ERα (Homo sapiens, UniProt Q92731); conditions: cited from earlier work
[1] = tested on: SJL mice with adoptive EAE; conditions: followed for the first 27 days; cited from earlier work
[2] = tested on: IFNγ in peripheral blood mononuclear cells (PBMCs); assay: IFNγ levels by RT-PCR of unstimulated PBMCs derived ex vivo; format: in vivo, human
Description: Peripheral blood mononuclear cells (PBMCs) were isolated from heparinized venous blood and cryopreserved. PBMCs were thawed in parallel from a given patient during the two pre-treatment timepoints and the two treatment timepoints. Total RNA was isolated, DNA was removed and mRNA was reverse transcribed. Both IFN-γ and actin were amplified from the same cDNA, however, the cDNA was diluted 1:9 prior to amplification for actin. Amplification was done in 1 mM […] using IFN.γ and actin primer sequences (Life Technologies, Rockville, Md.). Complementary DNA was amplified for 35 cycles: 45″ @ 95° C., 60″ @ 54° C. and 45″ @ 72° C. PCR products were separated on a 1.5% agarose gel containing ethidium bromide and densitometry performed.

[3] = tested on: women with clinically definite MS; assay: Serial cerebral MRI: gadolinium enhancing lesions and T2 lesion volumes
[4] = tested on: women with clinically definite MS; assay: Tolerability and laboratory safety measures, estriol trial and extension phase; format: in vivo, human; conditions: oral estriol 8 milligrams/day
Excerpt: Twelve female patients with clinically definite MS were enrolled. Six had RR disease and six had SP disease. All six RR and four of six SP patients completed the entire 18 month study period. […] Of the ten patients who completed the entire study, the mean age was 44 years (range 28 to 50 years) and the mean EDSS was 3.3 (range 1.0 to 6.5). The mean EDSS score for the SP patients was 5.0 while the mean EDSS for the RR patients was 2.2. The 18 month trial was extended in RR patients whereby treatment was re-instituted. Medication. For the initial treatment phase, micronized, U.S.P. graded estriol powder (Medisca, Inc., Plattsburg, N.Y.) was put into capsules by UCLA Pharmaceutical Services.
(§1) Subjects were evaluated using the Kurtzke's Expanded Disability Status Scale (EDSS) by the same neurologist (RV) throughout the study. At each visit the study nurse (RK) administered the paced auditory serial addition test (PASAT) and the 9-hole peg test. Blood was drawn for SMA12, cholesterol panel, blood counts and hormone levels (estriol, estradiol, estrone, LH, FSH, cortisol, progesterone). Estriol levels in serum were determined by ELISA according to manufacturer's instructions (Oxford Biomedical, Oxford, Mich.).
Indeed, estrogen cannot be given for a lengthy period of time in an “unopposed” fashion in any woman with a uterus. […]

[5] = tested on: DTH responses to tetanus and candida; design: species or system human; conditions: in vivo
[6] = tested on: post-partum patient with relapsing remitting multiple sclerosis; assay: Case of post-partum relapsing remitting MS patient; format: in vivo, human
Description: A patient was diagnosed as having relapsing remitting multiple sclerosis. Following the delivery of their first child (now […]), the patient was treated only with Copaxone and relapsed at 6 weeks. Following the delivery of their second child (now […]), the patient was again treated with Copaxone alone and again relapsed, this time at 4.5 months. Following a subsequent pregnancy, the patient was treated with 8 mg estriol/day in an attempt to prevent their post partum relapses.
Following the birth of the patient's third child (now 6 months), the patient resumed treatment with Copaxone as before. However, on day 10 post-partum they began taking estriol 8 mg/daily in an oral dosage form. […] Since monthly brain MRIs with gadolinium to detect enhancing MS lesions are more sensitive for inflammatory disease activity than relapses, the patient underwent serial monthly MRIs at post partum months 4, 5, and 6.
The patient doubled the progesterone minipill for 2 weeks to stabilize the endometrium. Otherwise no adverse events have been reported.

[7] = tested on: women with clinically definite MS; conditions: pilot clinical trial, non-pregnant female MS patients; cited from earlier work
[8] = tested on: women with clinically definite MS; assay: Clinical measures: EDSS, 9-hole peg test, PASAT, relapses; format: in vivo, human
Description: as §1

EAE mice = conditions: cited from earlier work
[9] = tested on: DTH responses to tetanus and candida; conditions: cited from earlier work
[10] = tested on: peripheral blood mononuclear cells; conditions: pilot clinical trial, non-pregnant female MS patients; cited from earlier work
[11] = Serum estriol levels (ELISA) in oral estriol crossover trial; format: in vivo, human; conditions: oral estriol 8 milligrams/day, treatment and re-treatment, MS patients
Description: as §1

[12] = RR patients, first three months of treatment
[13] = RR patients, next three months of treatment
[14] = 90 day release pellets of 5 or 15 milligrams estriol

Sequence of ERβ as compared to ERα (Q92731 whole entry): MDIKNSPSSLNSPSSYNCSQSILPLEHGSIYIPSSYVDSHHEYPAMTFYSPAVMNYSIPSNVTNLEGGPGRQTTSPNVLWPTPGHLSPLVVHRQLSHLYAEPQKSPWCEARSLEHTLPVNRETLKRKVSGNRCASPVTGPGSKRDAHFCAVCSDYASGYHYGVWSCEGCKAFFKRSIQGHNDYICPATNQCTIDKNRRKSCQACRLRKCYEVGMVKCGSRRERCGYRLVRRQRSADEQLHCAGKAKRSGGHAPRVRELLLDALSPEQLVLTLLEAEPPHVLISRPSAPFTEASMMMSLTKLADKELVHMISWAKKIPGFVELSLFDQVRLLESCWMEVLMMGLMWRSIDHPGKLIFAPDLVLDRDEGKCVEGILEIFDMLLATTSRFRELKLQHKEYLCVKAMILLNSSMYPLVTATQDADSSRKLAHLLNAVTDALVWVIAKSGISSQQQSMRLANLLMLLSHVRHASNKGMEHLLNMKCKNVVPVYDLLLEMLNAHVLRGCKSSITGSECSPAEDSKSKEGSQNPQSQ

Compound: C=Cc1cc(O)cc2nc(-c3ccc(O)c(F)c3)oc12 [WAY-202041]
- Selectivity for ERβ as compared to ERα (ERβ as compared to ERα): 200 fold
- Effect in adoptive EAE [1]: no effect

Compound: C[C@]12CC[C@@H]3c4ccc(O)cc4CC[C@H]3[C@@H]1CC(O)C2O (some centres unmarked) [estriol, estra-1,3,5(10)-triene-3,16,17-triol]
- Levels of IFNγ ([2]; four SP patients): no decrease
- Levels of IFNγ ([2]; six RR patients, study month 9 (three months of treatment) vs pretreatment): variably decreased
- Levels of IFNγ ([2]; six RR patients, study month 12 (six months of treatment) vs pretreatment): significantly decreased
- Change in median T2 lesion volumes (lower) ([3]; RR group, four month re-treatment extension period): 2.0%
- Change in median T2 lesion volumes (higher) ([3]; RR group, six month post treatment period): 7.4%
- Change in median T2 lesion volumes ([3]; RR group, six month treatment period): 0%
- Decrease in median total enhancing lesion numbers [3, 12]: 82%
- Decrease in median total enhancing lesion volumes [3, 12]: 79%
- Median total enhancing lesion volumes and numbers ([3]; RR patients, last three months of the post treatment period): returning to near baseline levels
- Decrease in median total enhancing lesion numbers [3, 13]: 82%
- Decrease in median total enhancing lesion volumes [3, 13]: 82%
- Total volume and number of enhancing lesions ([3]; all ten MS patients (6RR, 4SP), treatment period vs six month pretreatment baseline): decreased
- Laboratory measures including LH, FSH, cortisol, progesterone, estradiol and estrone [4]: no significant alterations
- Tolerability ([4]; six months): well tolerated with only menstrual cycle abnormalities
- DTH responses to candida [5]: decreased less dramatically and more variably
- DTH responses to tetanus [5]: significantly, P=−0.006, decreased
- Post-partum relapses ([6]; estriol 8 mg/daily oral from day 10 post-partum, with Copaxone, third child): no relapses for 6 months
- Adverse events ([6]; estriol 8 mg/daily with Copaxone and norethindrone 0.35 mg daily): increased irregular menstrual bleeding
- EDSS ([6]; estriol 8 mg/daily with Copaxone, 6 months post-partum): 1
- Uterine ultrasounds ([6]; month 3 and 6): thin, not thick, endometrium
- Gadolinium enhancement on brain MRI ([6]; post partum month 4, estriol with Copaxone): no enhancement
- Gadolinium enhancement on brain MRI ([6]; post partum month 5, estriol with Copaxone): only one small enhancing lesion
- Gadolinium enhancement on brain MRI ([6]; post partum month 6, estriol with Copaxone): No new enhancement
- T2 lesion load ([6]; post partum months 4-6, estriol with Copaxone): stable throughout
- Reduction of gadolinium-enhancing lesions on serial brain MRIs [7]: > 80%
- Hole Peg Test Score ([8]; 4 RR, L, 9 mo., Estriol Treatment): 24.3
- Hole Peg Test Score ([8]; 4 RR, L, 12 mo., Estriol Treatment): 23.3
- Hole Peg Test Score ([8]; 4 RR, L, 15 mo., Post Treatment): 23.0
- Hole Peg Test Score ([8]; 4 RR, L, 18 mo., Post Treatment): 22.7
- Hole Peg Test Score ([8]; 4 RR, R, 9 mo., Estriol Treatment): 22.5
- Hole Peg Test Score ([8]; 4 RR, R, 12 mo., Estriol Treatment): 21.5
- Hole Peg Test Score ([8]; 4 RR, R, 15 mo., Post Treatment): 21.0
- Hole Peg Test Score ([8]; 4 RR, R, 18 mo., Post Treatment): 21.4
- EDSS Scores ([8]; 4 SP, 9 mo., Estriol Treatment): 4.9
- EDSS Scores ([8]; 4 SP, 12 mo., Estriol Treatment): 5.0
- EDSS Scores ([8]; 4 SP, 15 mo., Post Treatment): 5.1
- EDSS Scores ([8]; 4 SP, 18 mo., Post Treatment): 5.0
- Hole Peg Test Score ([8]; 4 SP, L, 9 mo., Estriol Treatment): 22.7
- Hole Peg Test Score ([8]; 4 SP, L, 12 mo., Estriol Treatment): 24.8
- Hole Peg Test Score ([8]; 4 SP, L, 15 mo., Post Treatment): 26.7
- Hole Peg Test Score ([8]; 4 SP, L, 18 mo., Post Treatment): 25.0
- Hole Peg Test Score ([8]; 4 SP, R, 9 mo., Estriol Treatment): 30.2
- Hole Peg Test Score ([8]; 4 SP, R, 12 mo., Estriol Treatment): 31.7
- Hole Peg Test Score ([8]; 4 SP, R, 15 mo., Post Treatment): 29.4
- Hole Peg Test Score ([8]; 4 SP, R, 18 mo., Post Treatment): 34.0
- EDSS Scores ([8]; 6 RR, 9 mo., Estriol Treatment): 1.5
- EDSS Scores ([8]; 6 RR, 12 mo., Estriol Treatment): 1.7
- EDSS Scores ([8]; 6 RR, 15 mo., Post Treatment): 1.8
- EDSS Scores ([8]; 6 RR, 18 mo., Post Treatment): 1.8
- Improvement in PASAT scores ([8]; RR patients, during treatment as compared to baseline): 14.0%
- Relapses ([8]; SP patients, whole study): No relapses
- EDSS and 9 Hole Peg Test scores ([8]; during the study): no significant changes
- Relapses ([8]; six RR patients, post treatment period): two
- Relapses ([8]; six RR patients, re-treatment period): none
- Relapses ([8]; six RR patients, treatment period): one
- EAE disease severity (EAE mice; 90 day release pellets of 5 or 15 milligrams estriol, before or after disease onset): reduced
- Inflammation and demyelination (EAE mice; [14]): reduced inflammation and demyelination
- Production of the Th2 cytokine IL-10 (EAE mice; [14]): increase production
- Onset of clinical EAE (EAE mice; late pregnancy levels of estriol or supraphysiological doses of estradiol (5 times pregnancy levels)): delay the onset
- Delayed type hypersensitivity response (prototypic in vivo Th1 response) [9]: reduced
- TH2 (IL5, IL10) cytokine production by peripheral blood mononuclear cells [10]: increased
- Th1 (TNFα, IFNγ) cytokine production by peripheral blood mononuclear cells [10]: reduced
- Serum estriol levels [11]: approximated those observed in women who were six months pregnant
